Laboratory results taken from publication PMC9202281 (ACS Omega, 2022).

Tested on: not listed separately
Test: Solubility in solvents for NMR
Type: physicochemical
Details: not given

SMILES	solubility in solvents
CN1C(=O)C(C2OC(=O)c3ccccc32)C(=O)N(C)C1=O (stereo not shown) [3b, 1,3-Dimethyl-5-(3-oxo-1,3-dihydroisobenzofuran-1-yl) Barbituric Acid]	soluble in CHCl3

Molecular target: jack bean urease (EC 3.5.1.5) (Canavalia ensiformis, UniProt P07374)
Test: Urease inhibition method
Type: biochemical
Details: not given

Sequence of jack bean urease (EC 3.5.1.5) (P07374 whole entry, looked up): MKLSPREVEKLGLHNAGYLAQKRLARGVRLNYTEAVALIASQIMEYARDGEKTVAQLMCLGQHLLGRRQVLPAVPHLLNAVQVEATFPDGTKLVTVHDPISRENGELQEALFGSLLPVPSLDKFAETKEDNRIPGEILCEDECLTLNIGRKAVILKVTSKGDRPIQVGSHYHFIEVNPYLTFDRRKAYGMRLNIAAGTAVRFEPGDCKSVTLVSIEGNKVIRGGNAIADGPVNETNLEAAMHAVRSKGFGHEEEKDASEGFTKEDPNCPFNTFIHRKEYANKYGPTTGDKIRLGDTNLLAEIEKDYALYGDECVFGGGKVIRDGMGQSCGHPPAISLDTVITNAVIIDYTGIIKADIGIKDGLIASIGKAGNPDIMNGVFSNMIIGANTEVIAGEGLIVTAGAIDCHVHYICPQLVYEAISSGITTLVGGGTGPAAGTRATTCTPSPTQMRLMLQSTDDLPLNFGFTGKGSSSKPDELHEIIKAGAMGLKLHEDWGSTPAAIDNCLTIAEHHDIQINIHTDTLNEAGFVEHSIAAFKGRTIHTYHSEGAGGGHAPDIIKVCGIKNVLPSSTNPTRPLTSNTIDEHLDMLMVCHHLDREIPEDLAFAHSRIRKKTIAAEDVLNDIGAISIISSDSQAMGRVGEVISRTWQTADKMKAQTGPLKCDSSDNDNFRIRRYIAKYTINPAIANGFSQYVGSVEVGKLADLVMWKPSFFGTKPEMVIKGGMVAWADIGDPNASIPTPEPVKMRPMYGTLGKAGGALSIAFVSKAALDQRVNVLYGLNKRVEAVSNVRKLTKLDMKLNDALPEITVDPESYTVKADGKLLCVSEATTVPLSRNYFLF

SMILES	IC50
O=C1NC(=O)C(C2c3ccccc3C(=O)N2c2ccccc2)C(=O)N1 (stereo not shown) [5a, 5-(3-Oxo-2-phenylisoindolin-1-yl) Barbituric Acid]	1850 ± 60 nM
COc1ccc(N2C(=O)c3ccccc3C2C2C(=O)NC(=O)NC2=O)cc1 (stereo not shown) [5b, 5-(2-(4-Methoxyphenyl)-3-oxoisoindolin-1-yl) Barbituric Acid]	820 ± 30 nM
O=C1NC(=O)C(C2c3ccccc3C(=O)N2c2ccc(Cl)cc2)C(=O)N1 (stereo not shown) [5c, 5-(2-(4-Chlorophenyl)-3-oxoisoindolin-1-yl) Barbituric Acid]	1250 ± 50 nM
Cc1ccc(N2C(=O)c3ccccc3C2C2C(=O)NC(=O)NC2=O)cc1C (stereo not shown) [5d, 5-(2-(3,4-Dimethylphenyl)-3-oxoisoindolin-1-yl) Barbituric Acid]	1070 ± 20 nM
O=C1NC(=O)C(C2c3ccccc3C(=O)N2c2ccc(Br)cc2)C(=O)N1 (stereo not shown) [5e, 5-(2-(4-Bromophenyl)-3-oxoisoindolin-1-yl) Barbituric Acid]	960 ± 10 nM
O=C1NC(=O)C(C2c3ccccc3C(=O)N2c2ccc(Cl)c(Cl)c2)C(=O)N1 (stereo not shown) [5f, 5-(2-(3,4-Dichlorophenyl)-3-oxoisoindolin-1-yl) Barbituric Acid]	960 ± 10 nM
Cc1ccc(N2C(=O)c3ccccc3C2C2C(=O)NC(=O)NC2=O)cc1 (stereo not shown) [5g, 5-(3-Oxo-2-(p-tolyl) Isoindolin-1-yl) Barbituric Acid]	1090 ± 70 nM
O=C1NC(=O)C(C2c3ccccc3C(=O)N2c2ccc(F)cc2)C(=O)N1 (stereo not shown) [5h, 5-(2-(4-Fluorophenyl)-3-oxoisoindolin-1-yl) Barbituric Acid]	1280 ± 40 nM
O=C1NC(=O)C(C2c3ccccc3C(=O)N2c2cccc(Cl)c2)C(=O)N1 (stereo not shown) [5i, 5-(2-(3-Chlorophenyl)-3-oxoisoindolin-1-yl) Barbituric Acid]	1220 ± 50 nM
O=C1NC(=O)C(C2c3ccccc3C(=O)N2c2cc(Cl)cc(Cl)c2)C(=O)N1 (stereo not shown) [5j, 5-(2-(3,5-Dichlorophenyl)-3-oxoisoindolin-1-yl) Barbituric Acid]	1780 ± 100 nM
CC(C)CN1C(=O)c2ccccc2C1C1C(=O)NC(=O)NC1=O (stereo not shown) [5k, 5-(2-Isobutyl-3-oxoisoindolin-1-yl) Barbituric Acid]	1620 ± 50 nM
CC(C)N1C(=O)c2ccccc2C1C1C(=O)NC(=O)NC1=O (stereo not shown) [5l, 5-(2-Isopropyl-3-oxoisoindolin-1-yl) Barbituric Acid]	1850 ± 60 nM
COc1ccc(N2C(=O)c3ccccc3C2C2C(=O)N(C)C(=O)N(C)C2=O)cc1 (stereo not shown) [5m, 1,3-Dimethyl-5-(2-(4-methoxyphenyl)-3-oxoisoindolin-1-yl) Barbituric Acid]	970 ± 10 nM
COc1ccc(N2C(=O)c3ccccc3C2C2C(=O)NC(=S)NC2=O)cc1 (stereo not shown) [5n, 5-(2-(4-Methoxyphenyl)-3-oxoisoindolin-1-yl)-2-thiobarbituric Acid]	1340 ± 10 nM

Same assay, conditions: read-out: IC50 ± SEM; jack bean urease; triplicate, mean ± SEM

SMILES	IC50
NC(N)=S [thiourea, reference compound]	22000 ± 1200 nM
